Data taken from PMC8328489, “Automated Synthesis and Initial Evaluation of (4′-Amino-5′,8′-difluoro-1′H-spiro[piperidine-4,2′-quinazolin]-1-yl)(4-[^18F]fluorophenyl)methanone for PET/MR Imaging of Inducible Nitric Oxide Synthase” (Molecular Imaging, 2021).
Values joined by “and” are separate entries in the source; they are usually repeats but may differ in a detail not shown here. Identical values can stand only once.

Columns and labels:
[1] = Log P measurement (1-octanol/phosphate buffer, UV); assay type: physicochemical; settings: 1-octanol / 0.02 M phosphate buffer; 1-octanol / phosphate buffer pH 7.4
Method: The partition coefficient of FBAT, determined between 1-octanol and 0.02 M phosphate buffer at pH 7.4, was measured by UV spectrophotometer (SPARK 10 M from Tecan) at wavelength 230 nm.

[2] = system: murine microglial BV2 cells; test: In vitro [^18F]FBAT uptake assay; assay type: cell-based
Method: BV2 cells were cultured as described above, washed three times with fresh medium, pretreated with a selective iNOS inhibitor, aminoguanidine (AMG), (0, 1, or 0.1 mM) for 1 h, and then treated with cell culture media containing LPS and the inhibitor. At the indicated time points, the cells were washed thrice with fresh cell culture media, then incubated in fresh cell culture media continuing the radiotracer [^18F]FBAT at 0.37 MBq/mL for 15, 30, or 60 min, harvested by gentle scraping, and pelleted by centrifugation at 1500 g for 2 min. The weight of the cell pellet and 0.1 mL of the radioactive supernatant was determined. A Packard 5500 gamma counter (PerkinElmer, Billerica, MA, USA) was used to quantify radioactivity as cpm/g cells or cpm/mL media, respectively. Cell-to-medium radioactivity concentration ratios were calculated and plotted over time to evaluate the kinetics of accumulation of the radiotracer.
iNOS is the enzyme responsible for NO generation in BV2 cells; therefore, accumulation of [^18F]FBAT in BV2 cells before or after iNOS inhibitor versus NO production was also assessed.

[3] = Radiolabeled metabolites in blood plasma (radio-HPLC); assay type: in vivo, Sprague-Dawley rats; settings: rat, i.v.
Method: Adult Sprague-Dawley rats (n = 3) were anesthetized with 2% isoflurane (in oxygen) and injected with 194.87 MBq ± 22.61 MBq of [^18F]FBAT in the tail vein. Plasma was extracted from heparinized blood samples (0.25 mL) with 3x volumes of acetonitrile and analyzed with radio-HPLC; mobile phase: 40% MeCN/0.10% TEA in water at 1 mL/min. This method affords retention time of [^18F]FBAT which was 18.1–18.9 min. Fractions of [^18F]FBAT and metabolites were calculated for each sample based on the area under each peak. The radioactivity concentration in the whole blood and plasma was assayed using a gamma counter (Cobra, Packard, CT).

[4] = Whole-body dynamic PET/MR biodistribution and blood clearance; assay type: in vivo, C57BL/6 mice
Method: (§1) Mice (n = 30) were anesthetized with 2% isoflurane (in oxygen) and injected with [^18F]FBAT (11.1 MBq; 0.3 mCi) via the tail vein. Dynamic PET images were obtained in fully three-dimensional list mode for 30 min using a small animal SuperArgus 2r PET system (SEDECAL, Madrid, Spain) or 7T PETMR Inline (Bruker, Rheinstetten, Germany; energy window, 350-650 keV; timing window, 6 ns). Images were acquired every 10 s for 12 images, 60 s for three images, 300 s for three images, or 600 s for […]. The anatomical structure of the brain was imaged using T2 MRI. The MRI sequences included 0.5 mm thick T2 Turbo RARE high-resolution images (TR = 3000 ms, TE, 46 ms, matrix, 512 × 256, average, 40, slice number, 30, field of view, 20 × 10 mm).
(§2) Images were reconstructed by the Fourier rebinning algorithm and two-dimensional filtered back projection using a ramp filter with a cutoff at Nyquist. The regional radioactivity concentration (kBq/cc) of [^18F]FBAT was estimated from the mean pixel values within the region of interest (ROI) corresponding to MR images of various organs and regions of the brain. ROI for carotid artery, heart muscle, lung, liver, spleen, and kidney were defined and time activity curves (TACs) generated. TACs for whole brain, cortex, cerebellum, and brainstem were also determined as described above.
(§3) The concentration of radioactivity (kBq/cc, μCi/cc) was converted to standardized uptake value (SUV), and the mean and standard deviation (SD) of radiotracer accumulation values were calculated for different organs and regions of the brain. Data were analyzed with PMOD 4.0 software (PMOD Technologies Ltd., Zurich, Switzerland).

iNOS = target: T1, iNOS (Mus musculus, UniProt P29477); test: In vivo brain PET/MR imaging of LPS-induced iNOS expression (SUV, SUR, AUC) incl. aminoguanidine blocking; set-up: species or system C57BL/6 mice
T1 construct: tracer to detect iNOS expression in mice injected with lipopolysaccharide (LPS) to induce brain inflammation; from tissue; host or cells: brain of living C57BL/6 mice (LPS-induced); fixed brain sections for IHC
Method: For the imaging experiments, twelve C57BL/6 mice were injected i.p. with 0.9% NaCl, eighteen mice were injected i.p. with 0.1 mL of LPS in saline (5 mg/kg), and six mice were injected i.p. with aminoguanidine (Sigma-Aldrich) 30 min prior to 5 mg/kg LPS. In vivo imaging was performed 3 h or 24 h after injection of LPS; then, the mice were immediately humanely euthanized and the brains were removed for immunostaining.
as §1
After determining the optimal imaging time point for [^18F]FBAT, we performed a blocking study using a selective iNOS inhibitor to assess the specificity of the tracer for iNOS. Separate 7T PET/MR studies with [^18F]FBAT were performed for mice (n = 6) administered a bolus of aminoguanidine (50 mg/kg i.p.) 30 min prior to administration of [^18F]FBAT. The time course of [^18F]FBAT radioactivity in the brain after administration of the iNOS inhibitor was assessed and compared to that of the mice in the LPS 3 h group.
as §2, §3

[5] = LPS 5 mg/kg, 3 h, 30 min post i.v. tracer
[6] = LPS 5 mg/kg, 24 h, 30 min post i.v. tracer
[7] = LPS 3 h + aminoguanidine 50 mg/kg pretreatment
[8] = control mice, 30 min post i.v. tracer

logP [1]: 1.4
metabolites fraction in plasma ([3]; 120 min after injection): ~94.02%
parent compound fraction in plasma ([3]; first 5 minutes): 77.98%
level of [^18F]FBAT in blood (carotid ROI) ([4]; 30 min post i.v. injection, brain imaging study): 0.30 ± 0.06 SUV
radioactivity remaining in the blood pool ([4]; 30 min postinjection, whole-body biodistribution study): 0.298 ± 0.019 SUV
time of peak radioactivity in heart muscle ([4]; after injection): ≤ 1 min
blood clearance half-life, first phase (biexponential) ([4]; carotid, i.v.): 1.05 ± 0.58 min
blood clearance half-life, second phase (biexponential) ([4]; carotid, i.v.): 24.9 ± 7.46 min
time of peak accumulation in the lungs ([4]; postinjection): 1 to 2 min
accumulation of radioactivity in skeletal structures ([4]; up to 30 min postinjection): No accumulation
SUV, brainstem (iNOS; [5]): 0.98 ± 0.09 SUV and 0.976 ± 0.244^∗ SUV
SUV, cerebellum (iNOS; [5]): 0.60 ± 0.03 SUV and 0.600 ± 0.066^∗ SUV
SUV, cortex (iNOS; [5]): 0.90 ± 0.07 SUV and 0.904 ± 0.251^∗ SUV
SUV, brainstem (iNOS; [6]): 0.67 ± 0.07 SUV and 0.671 ± 0.148 SUV
SUV, cerebellum (iNOS; [6]): 0.54 ± 0.02 SUV and 0.542 ± 0.052 SUV
SUV, cortex (iNOS; [6]): 0.62 ± 0.02 SUV and 0.620 ± 0.041 SUV
SUV, whole brain (iNOS; [6]): 0.90 ± 0.13 SUV and 0.900 ± 0.270 SUV
SUV, brainstem (iNOS; [7]): 0.35 ± 0.10 SUV and 0.350 ± 0.055 SUV
SUV, cerebellum (iNOS; [7]): 0.31 ± 0.09 SUV and 0.310 ± 0.037 SUV
SUV, cortex (iNOS; [7]): 0.32 ± 0.09 SUV and 0.320 ± 0.063 SUV
SUV, whole brain (iNOS; [7]): 0.31 ± 0.08 SUV and 0.312 ± 0.055 SUV
SUR (SUVLPS to SUVcon), brainstem (iNOS; LPS 24 h): 1.273 ± 0.163
SUR (SUVLPS to SUVcon), cerebellum (iNOS; LPS 24 h): 1.233 ± 0.112
SUR (SUVLPS to SUVcon), cortex (iNOS; LPS 24 h): 0.970 ± 0.303
SUR (SUVLPS to SUVcon), whole brain (iNOS; LPS 24 h): 1.351 ± 0.451
SUR (SUV ratio to control), brainstem (iNOS; control mice): 1.000
SUR (SUV ratio to control), cerebellum (iNOS; control mice): 1.000
SUR (SUV ratio to control), cortex (iNOS; control mice): 1.000
SUR (SUV ratio to control), whole brain (iNOS; control mice): 1.000
SUV, brainstem (iNOS; [8]): 0.540 ± 0.153 SUV
SUV, cerebellum (iNOS; [8]): 0.448 ± 0.115 SUV
SUV, cortex (iNOS; [8]): 0.604 ± 0.150 SUV
SUV, whole brain (iNOS; [8]): 0.709 ± 0.200 SUV
AUC0-30min, 3 h LPS group vs control group (iNOS; whole brain, average): 1.9 ± 0.21 fold
SMILES: NC1=NC2(CCN(C(=O)c3ccc([18F])cc3)CC2)Nc2c(F)ccc(F)c21 [[^18F]FBAT, (4′-amino-5′,8′-difluoro-1′H-spiro[piperidine-4,2′-quinazolin]-1-yl)(4-[^18F]fluorophenyl)methanone]
[^18F]FBAT accumulation, LPS-induced vs control BV2 cells ([2]; 60 min): more than 1.7 fold
cells-per-medium concentration ratio at plateau ([2]; LPS-induced BV2 cells, after 1 h): 180–200
cells-per-medium concentration ratio at plateau ([2]; control BV2 cells): ~100
SUV, whole brain (iNOS; [5]): 1.43 ± 0.11 SUV and 1.428 ± 0.410^∗∗∗ SUV
